In the assay the target is GCN2 (Homo sapiens, UniProt Q9P2K8). Nature of the assay: GCN2 enzymatic endpoint assay: phosphorylation of GFP-eIF2α measured by TR-FRET (Lanthascreen). The format is biochemical. Conditions: tested as described in Example 77; compound and/or hydrochloride, dihydrochloride or trifluoroacetic acid salt; read-out: IC 50 Activity. Summed up:
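Phosphorylated eIF2α read by Lanthascreen TR-FRET (acceptor 520 nm over donor 495 nm) after EDTA stop. The reaction ran 90 min at room temperature on 80 nM GFP-eIF2α with 2 μM ATP.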

The structures appear in SMILES notation.

In patent publication US11046699B2, “Pyrazolo-pyrimidin-amino-cycloalkyl compounds and their therapeutic uses” (RAPT THERAPEUTICS, INC., priority 2018, dated 2021) one finds IC50 data, which are given here for 27 molecules.

Sequence of GCN2 (Q9P2K8 whole entry): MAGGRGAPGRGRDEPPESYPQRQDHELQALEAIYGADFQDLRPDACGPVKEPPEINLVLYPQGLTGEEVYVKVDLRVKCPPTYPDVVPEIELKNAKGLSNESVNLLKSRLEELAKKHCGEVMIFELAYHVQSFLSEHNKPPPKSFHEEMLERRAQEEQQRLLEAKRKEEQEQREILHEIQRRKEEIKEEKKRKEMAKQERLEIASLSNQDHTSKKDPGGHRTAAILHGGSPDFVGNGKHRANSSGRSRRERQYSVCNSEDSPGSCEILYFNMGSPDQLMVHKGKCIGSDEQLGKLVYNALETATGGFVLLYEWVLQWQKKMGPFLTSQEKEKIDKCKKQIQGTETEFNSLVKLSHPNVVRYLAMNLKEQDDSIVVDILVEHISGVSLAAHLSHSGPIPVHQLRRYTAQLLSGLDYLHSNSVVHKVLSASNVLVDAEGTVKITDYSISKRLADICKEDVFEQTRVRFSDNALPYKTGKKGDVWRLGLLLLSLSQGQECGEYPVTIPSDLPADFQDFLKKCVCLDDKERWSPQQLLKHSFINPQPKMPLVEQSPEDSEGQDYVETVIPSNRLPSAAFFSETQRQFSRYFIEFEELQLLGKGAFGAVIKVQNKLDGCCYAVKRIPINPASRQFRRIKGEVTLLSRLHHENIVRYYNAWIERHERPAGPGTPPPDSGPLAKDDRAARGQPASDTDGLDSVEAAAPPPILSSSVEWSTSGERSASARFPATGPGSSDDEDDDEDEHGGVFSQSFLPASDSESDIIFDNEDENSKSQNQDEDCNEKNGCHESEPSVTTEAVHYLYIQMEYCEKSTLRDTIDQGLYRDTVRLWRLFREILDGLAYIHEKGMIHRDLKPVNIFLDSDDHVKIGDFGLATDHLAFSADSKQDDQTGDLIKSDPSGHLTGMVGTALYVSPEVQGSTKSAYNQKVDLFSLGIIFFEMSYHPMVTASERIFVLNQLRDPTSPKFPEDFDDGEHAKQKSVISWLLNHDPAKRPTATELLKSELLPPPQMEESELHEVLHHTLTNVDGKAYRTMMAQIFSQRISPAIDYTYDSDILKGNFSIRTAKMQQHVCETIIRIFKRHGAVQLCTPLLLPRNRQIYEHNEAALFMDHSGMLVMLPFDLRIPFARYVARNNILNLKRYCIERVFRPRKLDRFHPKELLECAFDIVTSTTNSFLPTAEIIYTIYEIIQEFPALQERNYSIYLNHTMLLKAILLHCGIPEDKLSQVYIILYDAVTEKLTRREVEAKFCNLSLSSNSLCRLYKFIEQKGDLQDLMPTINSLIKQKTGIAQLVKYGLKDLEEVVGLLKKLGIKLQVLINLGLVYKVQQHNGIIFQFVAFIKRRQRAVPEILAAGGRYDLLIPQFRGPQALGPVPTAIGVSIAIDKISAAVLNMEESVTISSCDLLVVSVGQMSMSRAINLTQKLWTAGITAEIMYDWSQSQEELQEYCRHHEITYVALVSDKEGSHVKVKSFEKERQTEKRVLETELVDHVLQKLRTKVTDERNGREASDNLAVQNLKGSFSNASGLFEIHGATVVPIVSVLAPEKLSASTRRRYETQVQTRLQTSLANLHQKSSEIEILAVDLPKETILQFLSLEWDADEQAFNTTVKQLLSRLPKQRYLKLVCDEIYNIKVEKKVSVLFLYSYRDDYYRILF

Consider `CNC(=O)[C@]1(C)CC[C@@H](Nc2ncc3c(Br)nn(-c4ccc(-c5ncco5)c(NC(=O)[C@@H]5CCNC5)c4)c3n2)C1` [(3R)-N-[5-[3-bromo-6-[[(1R,3R)-3-methyl-3-(methylcarbamoyl)cyclopentyl]amino]pyrazolo[3,4-d]pyrimidin-1-yl]-2-oxazol-2-yl-phenyl]pyrrolidine-3-carboxamide], for which the IC50 was less than 25 nM.

Turning to `CNC(=O)[C@]1(C)CC[C@@H](Nc2ncc3c(Br)nn(-c4ccc(-c5ncco5)c(NC(=O)[C@H]5CCNC5)c4)c3n2)C1` [(3S)-N-[5-[3-bromo-6-[[(1R,3R)-3-methyl-3-(methylcarbamoyl)cyclopentyl]amino]pyrazolo[3,4-d]pyrimidin-1-yl]-2-oxazol-2-yl-phenyl]pyrrolidine-3-carboxamide], the IC50 was less than 25 nM.

On to `O=C1OCC[C@]12CC[C@@H](Nc1ncc3c(Br)nn(-c4cc(F)c5ncccc5c4)c3n1)C2` [(5R,7R)-7-((3-bromo-1-(8-fluoroquinolin-6-yl)-1H-pyrazolo[3,4-d]pyrimidin-6-yl)amino)-2-oxaspiro[4.4]nonan-1-one], for which the IC50 is less than 25 nM.

For the molecule `O=C1OCC[C@@]12CC[C@@H](Nc1ncc3c(Br)nn(-c4cc(F)c5ncccc5c4)c3n1)C2` [(5S,8R)-8-[[3-bromo-1-(8-fluoro-6-quinolyl)pyrazolo[3,4-d]pyrimidin-6-yl]amino]-2-oxaspiro[4.4]nonan-1-one], the IC50 was in the range of 25 to 200 nM.

Regarding `O=C([C@@H]1CC[C@@H](Nc2ncc3c(Br)nn(-c4ccc5ncccc5c4)c3n2)C1)N1CC2CCC(C1)O2` [(8-oxa-3-azabicyclo[3.2.1]octan-3-yl)((1R,3R)-3-((3-bromo-1-(quinolin-6-yl)-1H-pyrazolo [3,4-d]pyrimidin-6-yl)amino)cyclopentyl) methanone], the IC50 lay in the range of 25 to 200 nM.

Turning to `O=C([C@@H]1CC[C@@H](Nc2ncc3c(Br)nn(-c4cc(F)c5ncccc5c4)c3n2)C1)N1CCN2C(=O)CC[C@@H]2C1` [(8aR)-2-[(1R,3R)-3-[[3-bromo-1-(8-fluoro-6-quinolyl)pyrazolo[3,4-d]pyrimidin-6-yl]amino]cyclopentane-carbonyl]-1,3,4,7,8,8a-hexahydro-pyrrolo[1,2-a]pyrazin-6-one], the IC50 is less than 25 nM.

Consider `C[C@@]1(C(=O)N2CCN3C(=O)CC[C@H]3C2)CC[C@@H](Nc2ncc3c(Br)nn(-c4cc(F)c5ncccc5c4)c3n2)C1` [(8aS)-2-[(1R,3R)-3-[[3-bromo-1-(8-fluoro-6-quinolyl)pyrazolo[3,4-d]pyrimidin-6-yl]amino]-1-methyl-cyclopentanecarbonyl]-1,3,4,7,8,8a-hexahydropyrrolo[1,2-a]pyrazin-6-one], for which the IC50 fell in the range of 25 to 200 nM.

As for `O=C([C@@H]1CC[C@@H](Nc2ncc3c(Br)nn(-c4cc(F)c5ncccc5c4)c3n2)C1)N1CCN2C(=O)CC[C@H]2C1` [(8aS)-2-[(1R,3R)-3-[[3-bromo-1-(8-fluoro-6-quinolyl)pyrazolo[3,4-d]pyrimidin-6-yl]amino]cyclopentane-carbonyl]-1,3,4,7,8,8a-hexahydro-pyrrolo[1,2-a]pyrazin-6-one], the IC50 is less than 25 nM.

Turning to `O=C([C@@H]1CC[C@@H](Nc2ncc3c(Br)nn(-c4cc(F)c5ncccc5c4)c3n2)C1)N1CCS(=O)(=O)CC1` [((1R,3R)-3-((3-bromo-1-(8-fluoroquinolin-6-yl)-1H-pyrazolo[3,4-d]pyrimidin-6-yl)amino)cyclopentyl)(1,1-dioxidothio-morpholino)methanone], the IC50 fell in the range of 25 to 200 nM.

With `O=C([C@@H]1CC[C@@H](Nc2ncc3c(Br)nn(-c4cc(F)c5ncccc5c4)c3n2)C1)n1ccc(C(F)(F)F)n1` [((1R,3R)-3-((3-bromo-1-(8-fluoroquinolin-6-yl)-1H-pyrazolo[3,4-d]pyrimidin-6-yl)amino)cyclopentyl)(3-(trifluoromethyl)-1H-pyrazol-1-yl)methanone], the IC50 was in the range of 25 to 200 nM.

Take `O=C([C@@H]1CC[C@@H](Nc2ncc3c(Br)nn(-c4cc(F)c5ncccc5c4)c3n2)C1)N1CCN2CCOC[C@@H]2C1` [((1R,3R)-3-((3-bromo-1-(8-fluoroquinolin-6-yl)-1H-pyrazolo[3,4-d]pyrimidin-6-yl)amino)cyclopentyl)((S)-hexahydropyrazino[2,1-c] [1,4]oxazin-8(1H)-yl)methanone]: the IC50 was 25 to 200 nM.

As to `O=C([C@@H]1CC[C@@H](Nc2ncc3c(Br)nn(-c4ccc5ncccc5c4)c3n2)C1)N1CCS(=O)(=O)CC1` [((1R,3R)-3-((3-bromo-1-(quinolin-6-yl)-1H-pyrazolo[3,4-d]pyrimidin-6-yl)amino)cyclo-pentyl)(1,1-dioxidothiomorpholino)methanone], the IC50 lay in the range of 25 to 200 nM.

On to `O=C([C@@H]1CC[C@@H](Nc2ncc3c(Br)nn(-c4ccc5ncccc5c4)c3n2)C1)N1CC[S+]([O-])CC1` [((1R,3R)-3-((3-bromo-1-(quinolin-6-yl)-1H-pyrazolo[3,4-d]pyrimidin-6-yl)amino)cyclo-pentyl)(1-oxidothiomorpholino)methanone], for which the IC50 is 25 to 200 nM.

Regarding `O=C([C@@H]1CC[C@@H](Nc2ncc3c(Br)nn(-c4ccc5ncccc5c4)c3n2)C1)N1CC2(CCNC2)C1` [((1R,3R)-3-((3-bromo-1-(quinolin-6-yl)-1H-pyrazolo[3,4-d]pyrimidin-6-yl)amino)cyclo-pentyl)(2,6-diazaspiro[3.4]octan-2-yl) methanone], the IC50 was 25 to 200 nM.

Turning to `O=C([C@@H]1CC[C@@H](Nc2ncc3c(Br)nn(-c4ccc5ncccc5c4)c3n2)C1)N1CCC2(CNC2)C1` [((1R,3R)-3-((3-bromo-1-(quinolin-6-yl)-1H-pyrazolo[3,4-d]pyrimidin-6-yl)amino)cyclo-pentyl)(2,6-diazaspiro[3.4]octan-6-yl) methanone], the IC50 was less than 25 nM.

Take `O=C([C@@H]1CC[C@@H](Nc2ncc3c(Br)nn(-c4ccc5ncccc5c4)c3n2)C1)N1CC(N2CCS(=O)(=O)CC2)C1` [((1R,3R)-3-((3-bromo-1-(quinolin-6-yl)-1H-pyrazolo[3,4-d]pyrimidin-6-yl)amino)cyclo-pentyl)(3-(1,1-dioxidothiomorpholino)azetidin-1-yl)methanone]: the IC50 fell in the range of 25 to 200 nM.

For `O=C([C@@H]1CC[C@@H](Nc2ncc3c(Br)nn(-c4ccc5ncccc5c4)c3n2)C1)N1CCC(O)(CO)CC1` [((1R,3R)-3-((3-bromo-1-(quinolin-6-yl)-1H-pyrazolo[3,4-d]pyrimidin-6-yl)amino)cyclo-pentyl)(4-hydroxy-4-(hydroxymethyl)piperidin-1-yl)methanone], the IC50 was in the range of 25 to 200 nM.

Consider `O=C([C@@H]1CC[C@@H](Nc2ncc3c(Br)nn(-c4ccc5ncccc5c4)c3n2)C1)N1CCC(O)(C(F)(F)F)CC1` [((1R,3R)-3-((3-bromo-1-(quinolin-6-yl)-1H-pyrazolo[3,4-d]pyrimidin-6-yl)amino)cyclo-pentyl)(4-hydroxy-4-(trifluoromethyl)piperidin-1-yl)methanone], for which the IC50 was 200 to 500 nM.

Regarding `C[C@@H]1CN(C(=O)[C@@H]2CC[C@@H](Nc3ncc4c(Br)nn(-c5ccc6ncccc6c5)c4n3)C2)C[C@@H](C)O1` [((1R,3R)-3-((3-bromo-1-(quinolin-6-yl)-1H-pyrazolo[3,4-d]pyrimidin-6-yl)amino)cyclo-pentyl)((2R,6R)-2,6-dimethylmorpholino) methanone], the IC50 was 25 to 200 nM.

Take `C[C@@H]1CNC[C@H](C)N1C(=O)[C@@H]1CC[C@@H](Nc2ncc3c(Br)nn(-c4ccc5ncccc5c4)c3n2)C1` [((1R,3R)-3-((3-bromo-1-(quinolin-6-yl)-1H-pyrazolo[3,4-d]pyrimidin-6-yl)amino)cyclo-pentyl)((2R,6S)-2,6-dimethylpiperazin-1-yl)methanone]: the IC50 was less than 25 nM.

For `C[C@H]1CN(C(=O)[C@@H]2CC[C@@H](Nc3ncc4c(Br)nn(-c5ccc6ncccc6c5)c4n3)C2)C[C@H](C)O1` [((1R,3R)-3-((3-bromo-1-(quinolin-6-yl)-1H-pyrazolo[3,4-d]pyrimidin-6-yl)amino)cyclo-pentyl)((2S,6S)-2,6-dimethylmorpholino) methanone], the IC50 is 25 to 200 nM.

In the case of `C[C@@H]1CN(C(=O)[C@@H]2CC[C@@H](Nc3ncc4c(Br)nn(-c5ccc6ncccc6c5)c4n3)C2)C[C@H](C)N1` [((1R,3R)-3-((3-bromo-1-(quinolin-6-yl)-1H-pyrazolo[3,4-d]pyrimidin-6-yl)amino)cyclo-pentyl)((3S,5R)-3,5-dimethylpiperazin-1-yl) methanone], the IC50 lay within 25 to 200 nM.

As to `C[C@H]1CN(C(=O)[C@@H]2CC[C@@H](Nc3ncc4c(Br)nn(-c5ccc6ncccc6c5)c4n3)C2)C[C@H](C)N1` [((1R,3R)-3-((3-bromo-1-(quinolin-6-yl)-1H-pyrazolo[3,4-d]pyrimidin-6-yl)amino)cyclo-pentyl)((3S,5S)-3,5-dimethylpiperazin-1-yl)methanone], the IC50 was in the range of 25 to 200 nM.

For the molecule `C[C@@H]1CN(C(=O)[C@@H]2CC[C@@H](Nc3ncc4c(Br)nn(-c5ccc6ncccc6c5)c4n3)C2)CCO1` [((1R,3R)-3-((3-bromo-1-(quinolin-6-yl)-1H-pyrazolo[3,4-d]pyrimidin-6-yl)amino)cyclo-pentyl)((R)-2-methylmorpholino)methanone], the IC50 lay within 25 to 200 nM.

With `C[C@@H]1COCCN1C(=O)[C@@H]1CC[C@@H](Nc2ncc3c(Br)nn(-c4ccc5ncccc5c4)c3n2)C1` [((1R,3R)-3-((3-bromo-1-(quinolin-6-yl)-1H-pyrazolo[3,4-d]pyrimidin-6-yl)amino)cyclo-pentyl)((R)-3-methylmorpholino)methanone], the IC50 lay within 25 to 200 nM.

For the molecule `C[C@H]1CN(C(=O)[C@@H]2CC[C@@H](Nc3ncc4c(Br)nn(-c5ccc6ncccc6c5)c4n3)C2)CCO1` [((1R,3R)-3-((3-bromo-1-(quinolin-6-yl)-1H-pyrazolo[3,4-d]pyrimidin-6-yl)amino)cyclo-pentyl)((S)-2-methylmorpholino)methanone], the IC50 lay within 25 to 200 nM.

Regarding `O=C([C@@H]1CC[C@@H](Nc2ncc3c(Br)nn(-c4ccc5ncccc5c4)c3n2)C1)N1CCN[C@@H](CCO)C1` [((1R,3R)-3-((3-bromo-1-(quinolin-6-yl)-1H-pyrazolo[3,4-d]pyrimidin-6-yl)amino)cyclo-pentyl)((S)-3-(2-hydroxyethyl)piperazin-1-yl) methanone], the IC50 was 25 to 200 nM.
